PMC8266241, “Tetralone derivatives are MIF tautomerase inhibitors and attenuate macrophage activation and amplify the hypothermic response in endotoxemic mice” (Journal of Enzyme Inhibition and Medicinal Chemistry, 2021)
Like-named read-outs stand apart in the source and are kept apart here.

Experiments:
recombinant human MIF [1] = target: T1, recombinant human MIF (Homo sapiens, UniProt P14174); assay: Tautomerase assay: enol-keto tautomeric conversion of phenylpyruvate (ketonase reaction); assay type: biochemical; conditions: for IC50: enol-keto conversion of phenylpyruvate, 100 µM substrate, pH 6.5, read-out: Inhibition of ketonase (IC50); for IC50enolase/IC50ketonase: selectivity for ketonase
T1 construct: purchased ATGen Co. Ltd., Seoul, Republic of Korea
T1 sequence (P14174 2-115 limits assumed): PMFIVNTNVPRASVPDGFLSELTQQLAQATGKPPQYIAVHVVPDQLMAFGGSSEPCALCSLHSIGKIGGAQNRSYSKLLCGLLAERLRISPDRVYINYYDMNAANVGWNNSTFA
Experimental: The enol-keto tautomeric conversion of phenylpyruvate (ketonase reaction) was assessed at room temperature by monitoring the decrease in absorbance at 288 nm on a dual path Shimadzu 2100 UV spectrophotometer (Shimadzu, Kyoto, Japan) according to Taylor et al.[55] with minor modifications. Briefly, the 0.72 ml reaction mixture consisted of the enzyme at a final concentration of 0.4 µg/ml and the substrate in a 50 mM sodium phosphate buffer (pH = 6.5). The phenylpyruvate substrate was dissolved fresh in absolute ethanol to yield a final concentration of 100 µM. The reaction was monitored for 75 s at room temperature. A recombinant human MIF (from ATGen Co. Ltd., Seoul, Republic of Korea) was used as the enzyme source. Inhibitors were dissolved fresh in ethanol or DMSO. […] The compounds were diluted to achieve final concentrations of 200, 100, 50, 20, 5, 1, and 0.5 µM in the reaction mixture. All data presented have been derived from consonant measurements repeated at least three times. […] The areas under the curves obtained with and without the inhibitors were used to compare the conversion rates of the substrate.

recombinant human MIF [2] = target: T1, recombinant human MIF; assay: Tautomerase assay: keto-enol tautomeric conversion of phenylpyruvate (enolase activity); assay type: biochemical; conditions: for IC50: keto-enol conversion of phenylpyruvate, read-out: Inhibition of enolase (IC50)
RAW264.7 cells [3] = assay: ROS production in LPS-induced macrophages (DHR123); assay type: cell-based, mouse; conditions: 20 µM pre-treatment, 1 µg/ml LPS 24 h; for decrease in ROS concentrations: vs LPS-activated cells
Experimental: (§1) In cell culture experiments, we used RAW264.7 mouse monocyte/macrophage cell line (ECACC, Salisbury, UK; passage number: 8–15) and RAW-Blue™ cells (Invivogen, Toulouse France, passage number: 10–14). RAW264.7 and RAW-Blue™ cells were cultured in 5% CO2 at 37 °C in endotoxin-tested Dulbecco’s Modified Eagle’s Medium (high glucose, 4.5 g/L, 2 mM L-glutamine; Corning, Corning Incorporated Costar, Corning, NY) supplemented with 10% FBS. For culturing RAW-Blue™ cells, we also added 100 µg/ml normocin and 200 µg/ml zeocin to the medium. The day before the experiments, cells were plated onto 24- or 96-well plates and cultured overnight. […] The freshly synthesised tetralone derivatives were dissolved in DMSO and applied in 20 µM concentration as a pre-treatment, added 30 min before LPS induction. To exclude the effects of vehicle, both CTRL and LPS-treated cells received the same amount of DMSO.
To measure the amount of reactive oxygen species we seeded RAW264.7 cells onto 96-well plates in a density of 10^5cells/well. Cells were treated with the tetralones as a pre-treatment and they were induced with 1 µg/ml LPS for 24 h. Then 2 µM dihydrorhodamine123 (DHR123; Life Technologies, Carlsbad, CA) fluorescent dye was added and incubated for an additional 2 h. Fluorescent intensity of the dye (excitation 490 nm/emission 510–570 nm) was measured with Glomax Multi Detection System (Promega®, Madison, WI, USA).

RAW264.7 cells [4] = assay: Nitrite production in LPS-induced macrophages (Griess reagent); assay type: cell-based, mouse; conditions: 20 µM pre-treatment, 1 µg/ml LPS 24 h; for lower nitrite concentrations: vs LPS-activated cells
Experimental: as §1
For nitrite measurements, we applied the same culturing conditions, treatments, and equipment as described above. After 24 h of incubation, 50 µl medium was removed and added to equal amount of Griess reagent (Sigma-Aldrich, St. Louis, MO, USA) in 96-well plate. The optical density was measured at 550 nm wavelength.

[5] = system: NF-κB activation in RAW-Blue™ cells; assay: NF-κB activation reporter assay (QUANTI-Blue); assay type: cell-based, mouse; conditions: 20 µM pre-treatment, 1 µg/ml LPS 24 h, vs LPS-activated cells
Experimental: as §1
The detection of NF-κB activation was accomplished by using RAW-Blue™ cells. RAW-Blue™ cells are genetically modified RAW264.7 macrophages, which are able to secrete embryonic alkaline phosphatase (EAP) upon LPS induction and following NF-κB activation. The levels of EAP can be examined using QUANTI-Blue™ detection medium.
RAW-Blue™ cells were seeded into 96-well plate at a density of 10^5cells/well. Cells were treated with tetralones (pre-treatment, 20 µM) and with 1 µg/ml LPS. 24 h after LPS treatment 20 µl medium was removed and incubated with 100 µl QUANTI-Blue™ detection medium (Invivogen; Toulouse, France) in 96-well plates. The optical density was measured at 600 nm.

IL-6 in RAW264.7 cells = assay: IL-6 production, ELISA; assay type: cell-based, mouse; conditions: 20 µM pre-treatment, 1 µg/ml LPS 24 h
Experimental: as §1, with “To exclude the effects of vehicle, both CTRL and LPS-treated cells received the same amount of DMSO.” left out
(§2) For cytokine concentration measurements, RAW264.7 cells were cultured in 24-well plates at a density of 5*10^5 cells/well and treated with tetralones (pre-treatment, 20 µM) and with 1 µg/ml LPS for 24 h. TNF-α, IL-6 and CCL-2 levels were determined from the culturing media by using Ready-Set-Go ELISA kits (eBioscience, San Diego, CA, USA) for TNF-α and IL-6 detection and mouse CCL-2 uncoated ELISA-kit (Invitrogen, Vienna, Austria) for CCL-2 determination. ELISA-kits were applied as provided by the protocol of the manufacturer, the optical density was measured at 450 nm.

TNF-α in RAW264.7 cells = assay: TNF-α production, ELISA; assay type: cell-based, mouse; conditions: 20 µM pre-treatment, 1 µg/ml LPS 24 h
Experimental: as §1, with “To exclude the effects of vehicle, both CTRL and LPS-treated cells received the same amount of DMSO.” left out
as §2

recombinant human MIF [6] = target: T1, recombinant human MIF; parameters: method as in PMID 15778121; conditions: reference inhibitor; read-out: ketonase IC50 of reference inhibitor; cited from earlier work
recombinant human MIF [7] = target: T1, recombinant human MIF; parameters: method as in PMID 15778121; conditions: reference inhibitor; read-out: enolase IC50 of reference inhibitor; cited from earlier work

SMILES | IC50 (recombinant human MIF [1]) | IC50 (recombinant human MIF [2]) | other results
Cc1cccc(/C=C2\COc3ccccc3C2=O)c1 [Compound 29] | 56.1 ± 8.8 µM | 443 ± 112 µM | –
O=C1/C(=C/c2ccc(Br)cc2)CCc2ccccc21 [Compound 8] | 52.2 ± 11.5 µM | 232 ± 54 µM | –
O=C1/C(=C/c2cccs2)CCc2ccccc21 [Compound 20] | 54 ± 5.5 µM | 52.3 ± 7.6 µM | –
O=C1/C(=C/c2ccccc2)C[S+]([O-])c2ccccc21 (racemic) [Compound 37] | 94.6 ± 25.4 µM | 193 ± 59 µM | –
Cc1ccc(/C=C2\CCc3ccccc3C2=O)cc1 [Compound 4] | 16.5 ± 3.4 µM | 2290 ± 343 µM | effect on ROS level (RAW264.7 cells [3]): failed to modify ROS level; effect on nitrite production (RAW264.7 cells [4]): could also inhibit nitrite production, but to a lower extent; effect on NF-κB activation [5]: slight, but statistically significant inhibitory effect
O=C1/C(=C/c2c(Cl)cccc2Cl)CCc2ccccc21 [Compound 11] | 58.9 ± 10.3 µM | 35.5 ± 5.9 µM | –
O=C1/C(=C/c2ccccc2Br)COc2ccccc21 [Compound 34] | 98.3 ± 16 µM | 3200 ± 887 µM | –
O=C1/C(=C/c2ccc(Cl)cc2)CCc2ccccc21 [Compound 6] | 59.1 ± 9.7 µM | 42.8 ± 3.1 µM | –
O=C1/C(=C/c2ccncc2)CCc2ccccc21 [Compound 26] | 21 ± 6.9 µM | 209 ± 77 µM | decrease in ROS concentrations (RAW264.7 cells [3]): ~20%; IC50enolase/IC50ketonase (recombinant human MIF [1]): 10; lower nitrite concentrations (RAW264.7 cells [4]): ~50%; effect on IL-6 production (IL-6 in RAW264.7 cells): had the most dominant effect; effect on NF-κB activation [5]: slight, but statistically significant inhibitory effect; effect on TNF-α production (TNF-α in RAW264.7 cells): reduced TNF-α production
COc1cccc(/C=C2\COc3ccccc3C2=O)c1 [Compound 31] | 97 ± 20.7 µM | 205 ± 32 µM | –
Cc1ccc(/C=C2\COc3ccccc3C2=O)cc1 [Compound 28] | 102 ± 19 µM | 3620 ± 829 µM | –
O=C1/C(=C/c2ccc(Cl)cc2Cl)CCc2ccccc21 [Compound 13] | 16.9 ± 4.2 µM | 301 ± 42 µM | IC50enolase/IC50ketonase (recombinant human MIF [1]): 18
O=C1/C(=C/c2ccccc2)CCc2ccccc21 [Compound 2] | 127 ± 20 µM | 113 ± 16 µM | –
COc1ccc(/C=C2\CCc3ccccc3C2=O)cc1OC [Compound 17] | 585 ± 94 µM | 302 ± 63 µM | –
O=C1/C(=C/c2ccccc2)Cc2ccccc21 [Compound 1, E-2-phenylmethylene-1-indanone] | 82.8 ± 16.5 µM | 20.2 ± 3.9 µM | –
O=C(O)/C=C/c1ccc(O)c(O)c1 [caffeic acid] | – | – | IC50 (recombinant human MIF [6]): 0.5 µM; IC50 (recombinant human MIF [7]): 2 µM
Cn1cccc1C=C1CCc2ccccc2C1=O [Compound 22] | 23.8 ± 3.8 µM | 27.8 ± 5.6 µM | –
O=C1/C(=C/c2ccc(Cl)c(Cl)c2)CCc2ccccc21 [Compound 12] | 2620 ± 696 µM | 91.5 ± 9 µM | –
O=C1/C(=C/c2ccco2)CCc2ccccc21 [Compound 19] | 57.7 ± 12.6 µM | 25.4 ± 4.7 µM | –

SMILES | IC50 (recombinant human MIF [1]) | IC50 (recombinant human MIF [2]) | other results
O=C1/C(=C/c2ccc(F)cc2)CCc2ccccc21 [Compound 10] | 72.4 ± 3.4 µM | 42.1 ± 4.3 µM | –
N#Cc1ccc(/C=C2\CCc3ccccc3C2=O)cc1 [Compound 16] | 146 ± 17 µM | 43.2 ± 12.4 µM | –
O=C1/C(=C/c2ccccc2)C(c2ccccc2)Oc2ccccc21 (stereo not shown) [Compound 35] | 419 ± 113 µM | – | –
O=C1/C(=C/c2ccccc2Cl)CCc2ccccc21 [Compound 7] | 2640 ± 406 µM | 458 ± 73 µM | –
O=C1/C(=C/c2ccc3c(c2)OCO3)CCc2ccccc21 [Compound 18] | 50.7 ± 6 µM | 213 ± 31 µM | –
O=C1/C(=C/c2ccccc2)COc2ccccc21 [Compound 27] | 267 ± 59 µM | 1740 ± 483 µM | –
O=C1/C(=C/c2ccc(Br)cc2)COc2ccccc21 [Compound 33] | 311 ± 77 µM | 1890 ± 438 µM | –
O=C1/C(=C/c2cccc(Br)c2)CCc2ccccc21 [Compound 9] | 7340 ± 1020 µM | 3350 ± 424 µM | –
COc1ccc(/C=C2\COc3ccccc3C2=O)cc1 [Compound 30] | 96 ± 29.9 µM | 425 ± 70 µM | –
COc1ccccc1/C=C1\COc2ccccc2C1=O [Compound 32] | 4.31 ± 1.34 µM | 1260 ± 159 µM | decrease in ROS concentrations (RAW264.7 cells [3]): ~20%; lower nitrite concentrations (RAW264.7 cells [4]): ~50%; effect on IL-6 production (IL-6 in RAW264.7 cells): had the most dominant effect; effect on NF-κB activation [5]: could not show any reducing effect; effect on TNF-α production (TNF-α in RAW264.7 cells): reduced TNF-α production
O=C1/C(=C/c2ccc[nH]2)CCc2ccccc21 [Compound 21] | 142 ± 31 µM | 125 ± 39 µM | –
O=C1C(=Cc2cccnc2)CCc2ccccc21 [Compound 25] | 20.3 ± 5.5 µM | 28.6 ± 6 µM | –
COc1ccc(/C=C2\CCc3ccccc3C2=O)cc1 [Compound 5] | 57 ± 14.1 µM | 33.4 ± 8.8 µM | –
O=C(O)c1ccc(/C=C2\CCc3ccccc3C2=O)cc1 [Compound 14] | 187 ± 32 µM | 37.7 ± 16.3 µM | –
O=C1/C(=C\c2ccccc2)CSc2ccccc21 [Compound 36] | 208 ± 42 µM | 633 ± 108 µM | –
O=C1/C(=C/c2ccccc2)CS(=O)(=O)c2ccccc21 [Compound 38] | 160 ± 38 µM | 151 ± 27 µM | –
CN(C)c1ccc(/C=C2\CCc3ccccc3C2=O)cc1 [Compound 15] | 90.2 ± 15.1 µM | 495 ± 101 µM | –
O=C1/C(=C/c2ccccc2)CCCc2ccccc21 [Compound 3, E-2-phenylmethylene-1-benzosuberone] | 84 ± 15.3 µM | 129 ± 19 µM | –
O=C1/C(=C/c2c[nH]c3ccccc23)CCc2ccccc21 [Compound 23] | 58.8 ± 10.6 µM | 2.89 ± 0.75 µM | effect on ROS level (RAW264.7 cells [3]): induced a slight increase; effect on nitrite production (RAW264.7 cells [4]): could also inhibit nitrite production, but to a lower extent; IC50ketonase/IC50enolase (recombinant human MIF [2]; selectivity for enolase): 20; effect on NF-κB activation [5]: slight, but statistically significant inhibitory effect
